The values below are quoted from earlier work in patent publication US20210169807A1, “PHARMACEUTICAL COMPOSITION COMPRISING AN ATYPICAL ANTIPSYCHOTIC AGENT AND METHOD FOR THE PREPARATION THEREOF” (priority 2018, published 2021).

Like-named read-outs stand apart in the source and are kept apart here.

As for `Cc1nc2n(c(=O)c1CCN1CCC(c3noc4cc(F)ccc34)CC1)CCCC2O` (stereo not drawn) [Paliperidone, 3-[2-[4-(6-fluoro-1,2-benzisoxazol-3-yl)-1-piperidinyl]ethyl]-6,7,8,9-tetrahydro-9-hydroxy-2-methyl-4H-pyrido[1,2-a]pyrimidin-4-one], the solubility result is “slightly soluble” (in 0.1N HCl), “sparingly soluble” (in dichloromethane) and “insoluble” (in water).
